Measured values published in US20260174673A1, “COMPOSITIONS AND METHODS USING A COMBINATION OF OLEUROPEIN AND TAURINE” (SOCIÉTÉ DES PRODUITS NESTLÉ S.A., priority 2022, published 2026).

Test system: myotubes differentiated from C2C12 cells
Assay: Mitochondrial calcium rise in C2C12 myotubes (mitochondrial aequorin luminescence)
Format: cell-based
Conditions: C2C12-derived myotubes, taurine alone at the indicated concentrations (μM) vs. control, compounds added 2 hours before measurement, 28 experiments, P<0.05 one-way ANOVA
Protocol: To test the effect of oleuropein (or oleuropein aglycone), taurine and their combination in living cells, the inventors measured mitochondrial calcium rise in myotubes differentiated from C2C12 cells. C2C12 cells were purchased from ATCC. C2C12 cells were seeded in 96-well plates at a density of 8000 cells per well in DMEM high glucose (Gibco)+10% fetal calf serum. Myotubes were differentiated by growing the C2C12 cells in DMEM containing 2% horse serum, for 4 days. Mitochondrial calcium measurements were carried out using myotubes infected with the adenovirus (from Sirion biotech) expressing the mitochondrially targeted calcium sensor mitochondrial mutated aequorin (Montero et al., 2002 Biochem J. 2002 Jul. 15; 365(Pt 2): 451-9). For aequorin reconstitution, 24 hours after infection, myotubes were incubated for 2 h at room temperature (22±°C.) in standard medium (145 mM NaCl, 5 mM KCl, 1 mM MgCl2, 1 mM CaCl2, 10 mM glucose and 10 mM Hepes, pH 7.4) with 1 μM wild-type coelenterazine. […] Luminescence was measured at the FLIPR Tetra Aequorin (Molecular Devices). Calibration of the luminescence data into calcium concentration was carried out using an algorithm as described previously (Montero et al, 2002, Biochem J. 2002 Jul. 15; 365(Pt 2): 451-9)). Custom module analysis based on Excel (Microsoft) and GhaphPad Prism 7.02 (GraphPad) software was used for quantification.

## NCCS(=O)(=O)O [Taurine, 2-aminoethanesulfonic acid]
  integrated mitochondrial calcium rise, evoked by 5 mM caffeine: enhances mitochondrial Ca2+ elevation
Listed as taurine
  integrated mitochondrial calcium rise, evoked by 5 mM caffeine: enhances mitochondrial function
